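Method: 48-hour compound exposure of cells in 96-well plates, five concentrations, linear interpolation of endpoints. The concentration for 50% growth inhibition is given as GI50.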 Activity calls are given as the source filed them. Cut-off read from the data, not from the text of the source: active = GI50 up to about 1.1 µM and inactive = higher.
Tests used:
Assay in all cases: inhibition of tumour cell growth, NCI panel, 48 h
U-251 = system: U-251
HL-60 = system: HL-60
UACC-62 = system: UACC-62
SF-539 = system: SF-539
OVCAR-3 = system: OVCAR-3
SF-295 = system: SF-295
RPMI-8226 = system: RPMI-8226
TK-10 = system: TK-10
IGROV-1 = system: IGROV-1
SNB-75 = system: SNB-75
HCC 2998 = system: HCC 2998
UO-31 = system: UO-31
OVCAR-5 = system: OVCAR-5
SW-620 = system: SW-620
SK-MEL-28 = system: SK-MEL-28
COLO 205 = system: COLO 205
HOP-62 = system: HOP-62
SR = system: SR
ACHN = system: ACHN
SK-OV-3 = system: SK-OV-3

Row | Structure (SMILES) | GI50 (U-251) | GI50 (HL-60) | GI50 (UACC-62) | GI50 (SF-539) | GI50 (OVCAR-3) | GI50 (SF-295) | GI50 (RPMI-8226) | GI50 (TK-10) | GI50 (IGROV-1) | GI50 (SNB-75) | GI50 (HCC 2998) | GI50 (UO-31) | GI50 (OVCAR-5) | GI50 (SW-620) | GI50 (SK-MEL-28) | GI50 (COLO 205) | GI50 (HOP-62) | GI50 (SR) | GI50 (ACHN) | GI50 (SK-OV-3)
1 | CCOC(=O)C(NC(=O)c1ccccc1)(N1CCOCC1)C(F)(F)F (stereo not given) | > 100 µM (inactive) | > 100 µM (inactive) | > 100 µM (inactive) | > 100 µM (inactive) | > 100 µM (inactive) | > 100 µM (inactive) | > 100 µM (inactive) | > 100 µM (inactive) | > 100 µM (inactive) | > 100 µM (inactive) | > 100 µM (inactive) | > 100 µM (inactive) | > 100 µM (inactive) | > 100 µM (inactive) | > 100 µM (inactive) | > 100 µM (inactive) | > 100 µM (inactive) | > 100 µM (inactive) | > 100 µM (inactive) | > 100 µM (inactive)
2 | COc1ccc(C2(CN(C)C)COc3cc(OC)c(OC)cc3C2=O)cc1OC (stereo not given) | 45.9 µM (inactive) | 16.6 µM (inactive) | 38.7 µM (inactive) | 39.9 µM (inactive) | 86.7 µM (inactive) | 92.9 µM (inactive) | 23.5 µM (inactive) | 63.5 µM (inactive) | > 100 µM (inactive) | 47 µM (inactive) | > 100 µM (inactive) | 44.8 µM (inactive) | – | 21.6 µM (inactive) | > 100 µM (inactive) | 26.6 µM (inactive) | > 100 µM (inactive) | 30.6 µM (inactive) | 89.5 µM (inactive) | > 100 µM (inactive)
3 | CCCCCCCCc1cc2c(O)c(c1)Cc1cc(CCCCCCCC)cc(c1O)Cc1cc(CCCCCCCC)cc(c1O)Cc1cc(CCCCCCCC)cc(c1O)Cc1cc(CCCCCCCC)cc(c1O)Cc1cc(CCCCCCCC)cc(c1O)C2 | > 100 µM (inactive) | > 100 µM (inactive) | > 100 µM (inactive) | > 100 µM (inactive) | – | > 100 µM (inactive) | – | > 100 µM (inactive) | > 100 µM (inactive) | > 100 µM (inactive) | > 100 µM (inactive) | > 100 µM (inactive) | > 100 µM (inactive) | > 100 µM (inactive) | > 100 µM (inactive) | > 100 µM (inactive) | > 10 µM (inactive) | > 100 µM (inactive) | > 100 µM (inactive) | > 100 µM (inactive)
4 | Nc1cccc2c1-c1c(cccc1[N+](=O)[O-])C2=O | > 100 µM (inactive) | > 100 µM (inactive) | > 100 µM (inactive) | > 100 µM (inactive) | > 100 µM (inactive) | > 100 µM (inactive) | > 100 µM (inactive) | > 100 µM (inactive) | > 100 µM (inactive) | > 100 µM (inactive) | > 100 µM (inactive) | 0.108 µM (active) | > 100 µM (inactive) | > 100 µM (inactive) | – | > 100 µM (inactive) | > 100 µM (inactive) | > 100 µM (inactive) | – | > 100 µM (inactive)
5 | CC(=O)C1=CN=C2C(=O)N(c3ccccc3)N(C)C12C (stereo not given) | > 100 µM (inactive) | > 100 µM (inactive) | > 100 µM (inactive) | > 100 µM (inactive) | > 100 µM (inactive) | > 100 µM (inactive) | > 100 µM (inactive) | 49.9 µM (inactive) | > 100 µM (inactive) | 24.7 µM (inactive) | 16.9 µM (inactive) | > 100 µM (inactive) | > 100 µM (inactive) | > 100 µM (inactive) | – | > 100 µM (inactive) | – | > 100 µM (inactive) | > 100 µM (inactive) | > 100 µM (inactive)
6 | COC(=O)C1(SC)C2CCC3C2CCC31 (stereo not given) | > 100 µM (inactive) | > 100 µM (inactive) | – | > 100 µM (inactive) | > 100 µM (inactive) | > 100 µM (inactive) | > 100 µM (inactive) | – | > 100 µM (inactive) | > 100 µM (inactive) | > 100 µM (inactive) | > 100 µM (inactive) | > 100 µM (inactive) | > 100 µM (inactive) | > 100 µM (inactive) | > 100 µM (inactive) | > 100 µM (inactive) | > 100 µM (inactive) | > 100 µM (inactive) | > 100 µM (inactive)
7 | COC(=O)CCCC(=O)NC1=C(Nc2ccccc2)C(=O)c2ccccc2C1=O | 14.4 µM (inactive) | 20.5 µM (inactive) | 3.27 µM (inactive) | 18.6 µM (inactive) | 12.6 µM (inactive) | 17.5 µM (inactive) | 17.6 µM (inactive) | 26.8 µM (inactive) | 16 µM (inactive) | 18.4 µM (inactive) | 14.7 µM (inactive) | 21.2 µM (inactive) | 16.8 µM (inactive) | 25.2 µM (inactive) | 16.7 µM (inactive) | 16.3 µM (inactive) | – | 30.2 µM (inactive) | 19.3 µM (inactive) | 22.5 µM (inactive)
8 | CC(=O)c1ccc(-c2oc(-c3ccccc3)cc2-c2ccc3c(c2)OCO3)s1 | > 100 µM (inactive) | 1.02 µM (active) | > 100 µM (inactive) | > 100 µM (inactive) | > 100 µM (inactive) | > 100 µM (inactive) | > 100 µM (inactive) | > 100 µM (inactive) | > 100 µM (inactive) | > 100 µM (inactive) | > 100 µM (inactive) | > 100 µM (inactive) | > 100 µM (inactive) | > 100 µM (inactive) | – | > 100 µM (inactive) | > 100 µM (inactive) | > 100 µM (inactive) | > 100 µM (inactive) | > 100 µM (inactive)
9 | CC(C)C1C(=O)NC(CO)Cc2c[nH]c3c(C(c4c[nH]c5ccccc45)C(O)CO)ccc(c23)N1C (stereo not given) | – | 5.11 µM (inactive) | 79.8 µM (inactive) | > 100 µM (inactive) | > 100 µM (inactive) | 37.2 µM (inactive) | > 100 µM (inactive) | 36.3 µM (inactive) | > 100 µM (inactive) | 84.9 µM (inactive) | 3.38 µM (inactive) | > 100 µM (inactive) | – | 74.8 µM (inactive) | > 100 µM (inactive) | 4.79 µM (inactive) | – | 21.7 µM (inactive) | 41.3 µM (inactive) | > 100 µM (inactive)
10 | OC(C/C(=N\N=C(/CC(O)(C(F)(F)F)C(F)(F)F)c1ccccc1)c1ccccc1)(C(F)(F)F)C(F)(F)F | > 10 µM (inactive) | > 10 µM (inactive) | > 10 µM (inactive) | > 10 µM (inactive) | > 10 µM (inactive) | 6.44 µM (inactive) | > 10 µM (inactive) | > 10 µM (inactive) | > 10 µM (inactive) | > 10 µM (inactive) | > 10 µM (inactive) | – | > 10 µM (inactive) | > 10 µM (inactive) | > 10 µM (inactive) | > 10 µM (inactive) | > 10 µM (inactive) | > 10 µM (inactive) | > 10 µM (inactive) | > 10 µM (inactive)
11 | O=C1CSC2(CC(/C=C/c3ccccc3[N+](=O)[O-])=NN2c2cccc(S(=O)(=O)O)c2)N1c1nc2ccccc2s1 (stereo not given) | 14.5 µM (inactive) | 21.7 µM (inactive) | 13.6 µM (inactive) | 23.5 µM (inactive) | – | – | 16.8 µM (inactive) | 15.1 µM (inactive) | 15.3 µM (inactive) | 15.3 µM (inactive) | 30.3 µM (inactive) | 14.2 µM (inactive) | 19.3 µM (inactive) | 22.6 µM (inactive) | 38 µM (inactive) | 33.1 µM (inactive) | – | 20.2 µM (inactive) | 17.1 µM (inactive) | –
12 | CCOc1ccc(N(CC(=O)N2CC(=O)Nc3cc(C)c(C)cc32)C(C)=O)cc1 | > 100 µM (inactive) | > 100 µM (inactive) | > 100 µM (inactive) | > 100 µM (inactive) | 63.8 µM (inactive) | > 100 µM (inactive) | > 100 µM (inactive) | > 100 µM (inactive) | – | > 100 µM (inactive) | > 100 µM (inactive) | 75.7 µM (inactive) | > 100 µM (inactive) | > 100 µM (inactive) | > 100 µM (inactive) | > 100 µM (inactive) | > 100 µM (inactive) | > 100 µM (inactive) | > 100 µM (inactive) | > 100 µM (inactive)
13 | Cc1nn(C(=O)Cc2ccccc2)c2c1C(c1ccc(O)cc1)SC(=N)N2 (stereo not given) | – | > 100 µM (inactive) | > 100 µM (inactive) | > 100 µM (inactive) | – | > 100 µM (inactive) | > 100 µM (inactive) | > 100 µM (inactive) | > 100 µM (inactive) | 44.6 µM (inactive) | > 100 µM (inactive) | > 100 µM (inactive) | – | > 100 µM (inactive) | > 100 µM (inactive) | > 100 µM (inactive) | > 100 µM (inactive) | > 100 µM (inactive) | > 100 µM (inactive) | > 100 µM (inactive)
14 | Cc1cc(S(=O)(=O)Nc2nc(N)n(-c3ccccn3)n2)c(S)cc1Cl | > 100 µM (inactive) | > 100 µM (inactive) | > 100 µM (inactive) | > 100 µM (inactive) | > 100 µM (inactive) | – | > 100 µM (inactive) | > 100 µM (inactive) | > 100 µM (inactive) | > 100 µM (inactive) | > 100 µM (inactive) | > 100 µM (inactive) | > 100 µM (inactive) | > 100 µM (inactive) | > 100 µM (inactive) | > 100 µM (inactive) | > 100 µM (inactive) | > 100 µM (inactive) | > 100 µM (inactive) | > 100 µM (inactive)
15 | COC(=O)c1cc(C#N)[nH]c1-c1ccsc1 | > 100 µM (inactive) | 18.2 µM (inactive) | > 100 µM (inactive) | – | > 100 µM (inactive) | > 100 µM (inactive) | 22.5 µM (inactive) | > 100 µM (inactive) | > 100 µM (inactive) | > 100 µM (inactive) | > 100 µM (inactive) | 46.3 µM (inactive) | > 100 µM (inactive) | > 100 µM (inactive) | > 100 µM (inactive) | > 100 µM (inactive) | > 100 µM (inactive) | 29.9 µM (inactive) | 85.7 µM (inactive) | > 100 µM (inactive)

Source: ChEMBL document CHEMBL1201862, “PubChem BioAssay data set” (2004)
